For one data set, the target named is Nav 1.7 (Homo sapiens (Human), UniProt Q15858). The data set can be described thus: Inhibition of sodium channels, Red Membrane Potential Dye FLIPR assay, veratridine depolarization. The settings on record: HEK-293 cells overexpressing the channel; for IC50: read-out: Nav1.7 IC50. In kind it is cell-based.
The target in another data set is Nav 1.5 (Homo sapiens (Human), UniProt Q14524). The description is as above. In kind it is cell-based. The conditions noted are these: HEK-293 cells overexpressing the channel.
Where [1] appears, read: read-out: Nav1.5 IC50 (bound given in μM).

Structures are written as SMILES. Where two headings read alike, the source gives them in different places.

Chain of Nav 1.5 (Q14524 whole entry): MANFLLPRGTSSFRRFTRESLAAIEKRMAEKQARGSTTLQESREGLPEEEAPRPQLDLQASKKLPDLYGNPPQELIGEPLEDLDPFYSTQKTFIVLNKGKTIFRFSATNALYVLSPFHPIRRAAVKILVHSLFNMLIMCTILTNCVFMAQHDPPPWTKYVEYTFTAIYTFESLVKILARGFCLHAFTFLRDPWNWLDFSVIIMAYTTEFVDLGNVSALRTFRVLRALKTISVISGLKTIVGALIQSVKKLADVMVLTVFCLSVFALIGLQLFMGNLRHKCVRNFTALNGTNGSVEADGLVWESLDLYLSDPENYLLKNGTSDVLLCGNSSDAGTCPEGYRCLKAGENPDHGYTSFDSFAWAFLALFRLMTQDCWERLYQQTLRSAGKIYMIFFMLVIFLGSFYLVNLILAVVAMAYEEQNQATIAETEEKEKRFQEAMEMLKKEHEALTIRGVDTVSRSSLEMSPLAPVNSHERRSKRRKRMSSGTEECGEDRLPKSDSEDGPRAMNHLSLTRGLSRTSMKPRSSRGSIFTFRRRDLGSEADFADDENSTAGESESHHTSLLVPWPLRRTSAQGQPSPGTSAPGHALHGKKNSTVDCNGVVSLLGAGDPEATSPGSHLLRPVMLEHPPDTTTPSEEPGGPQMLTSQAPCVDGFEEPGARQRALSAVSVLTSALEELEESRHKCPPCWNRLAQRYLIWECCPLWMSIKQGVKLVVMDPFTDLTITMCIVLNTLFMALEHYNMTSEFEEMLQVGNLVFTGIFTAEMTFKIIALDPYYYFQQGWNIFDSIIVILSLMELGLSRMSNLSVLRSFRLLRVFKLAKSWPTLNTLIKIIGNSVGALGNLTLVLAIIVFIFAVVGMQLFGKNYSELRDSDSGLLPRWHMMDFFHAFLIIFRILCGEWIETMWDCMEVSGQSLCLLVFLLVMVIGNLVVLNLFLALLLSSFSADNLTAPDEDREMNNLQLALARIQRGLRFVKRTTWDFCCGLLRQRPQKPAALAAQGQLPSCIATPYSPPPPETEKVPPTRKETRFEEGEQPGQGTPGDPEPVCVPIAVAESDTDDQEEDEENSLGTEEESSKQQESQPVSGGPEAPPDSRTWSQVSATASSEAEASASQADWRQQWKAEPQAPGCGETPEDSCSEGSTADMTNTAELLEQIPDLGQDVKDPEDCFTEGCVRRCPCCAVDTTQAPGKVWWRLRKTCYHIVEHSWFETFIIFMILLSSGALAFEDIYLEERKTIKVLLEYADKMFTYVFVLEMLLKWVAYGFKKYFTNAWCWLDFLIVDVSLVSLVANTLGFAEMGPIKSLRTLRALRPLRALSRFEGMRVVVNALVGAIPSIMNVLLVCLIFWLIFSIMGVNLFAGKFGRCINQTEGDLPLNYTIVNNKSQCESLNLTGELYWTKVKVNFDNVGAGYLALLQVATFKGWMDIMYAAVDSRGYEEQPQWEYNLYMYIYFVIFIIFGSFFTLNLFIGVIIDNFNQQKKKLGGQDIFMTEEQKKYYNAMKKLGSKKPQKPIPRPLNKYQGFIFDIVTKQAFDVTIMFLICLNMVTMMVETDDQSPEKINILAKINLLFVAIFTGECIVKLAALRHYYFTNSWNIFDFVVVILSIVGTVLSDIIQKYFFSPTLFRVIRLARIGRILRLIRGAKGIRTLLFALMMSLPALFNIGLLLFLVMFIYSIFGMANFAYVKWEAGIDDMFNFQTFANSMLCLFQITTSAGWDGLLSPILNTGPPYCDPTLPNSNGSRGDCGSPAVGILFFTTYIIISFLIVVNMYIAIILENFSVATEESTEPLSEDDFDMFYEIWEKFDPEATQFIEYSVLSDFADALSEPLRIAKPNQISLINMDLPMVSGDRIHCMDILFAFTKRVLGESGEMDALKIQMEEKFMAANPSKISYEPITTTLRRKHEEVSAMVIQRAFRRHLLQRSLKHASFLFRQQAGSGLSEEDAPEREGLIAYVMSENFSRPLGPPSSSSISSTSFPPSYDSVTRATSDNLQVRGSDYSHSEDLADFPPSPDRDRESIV
Chain of Nav 1.7 (Q15858 whole entry): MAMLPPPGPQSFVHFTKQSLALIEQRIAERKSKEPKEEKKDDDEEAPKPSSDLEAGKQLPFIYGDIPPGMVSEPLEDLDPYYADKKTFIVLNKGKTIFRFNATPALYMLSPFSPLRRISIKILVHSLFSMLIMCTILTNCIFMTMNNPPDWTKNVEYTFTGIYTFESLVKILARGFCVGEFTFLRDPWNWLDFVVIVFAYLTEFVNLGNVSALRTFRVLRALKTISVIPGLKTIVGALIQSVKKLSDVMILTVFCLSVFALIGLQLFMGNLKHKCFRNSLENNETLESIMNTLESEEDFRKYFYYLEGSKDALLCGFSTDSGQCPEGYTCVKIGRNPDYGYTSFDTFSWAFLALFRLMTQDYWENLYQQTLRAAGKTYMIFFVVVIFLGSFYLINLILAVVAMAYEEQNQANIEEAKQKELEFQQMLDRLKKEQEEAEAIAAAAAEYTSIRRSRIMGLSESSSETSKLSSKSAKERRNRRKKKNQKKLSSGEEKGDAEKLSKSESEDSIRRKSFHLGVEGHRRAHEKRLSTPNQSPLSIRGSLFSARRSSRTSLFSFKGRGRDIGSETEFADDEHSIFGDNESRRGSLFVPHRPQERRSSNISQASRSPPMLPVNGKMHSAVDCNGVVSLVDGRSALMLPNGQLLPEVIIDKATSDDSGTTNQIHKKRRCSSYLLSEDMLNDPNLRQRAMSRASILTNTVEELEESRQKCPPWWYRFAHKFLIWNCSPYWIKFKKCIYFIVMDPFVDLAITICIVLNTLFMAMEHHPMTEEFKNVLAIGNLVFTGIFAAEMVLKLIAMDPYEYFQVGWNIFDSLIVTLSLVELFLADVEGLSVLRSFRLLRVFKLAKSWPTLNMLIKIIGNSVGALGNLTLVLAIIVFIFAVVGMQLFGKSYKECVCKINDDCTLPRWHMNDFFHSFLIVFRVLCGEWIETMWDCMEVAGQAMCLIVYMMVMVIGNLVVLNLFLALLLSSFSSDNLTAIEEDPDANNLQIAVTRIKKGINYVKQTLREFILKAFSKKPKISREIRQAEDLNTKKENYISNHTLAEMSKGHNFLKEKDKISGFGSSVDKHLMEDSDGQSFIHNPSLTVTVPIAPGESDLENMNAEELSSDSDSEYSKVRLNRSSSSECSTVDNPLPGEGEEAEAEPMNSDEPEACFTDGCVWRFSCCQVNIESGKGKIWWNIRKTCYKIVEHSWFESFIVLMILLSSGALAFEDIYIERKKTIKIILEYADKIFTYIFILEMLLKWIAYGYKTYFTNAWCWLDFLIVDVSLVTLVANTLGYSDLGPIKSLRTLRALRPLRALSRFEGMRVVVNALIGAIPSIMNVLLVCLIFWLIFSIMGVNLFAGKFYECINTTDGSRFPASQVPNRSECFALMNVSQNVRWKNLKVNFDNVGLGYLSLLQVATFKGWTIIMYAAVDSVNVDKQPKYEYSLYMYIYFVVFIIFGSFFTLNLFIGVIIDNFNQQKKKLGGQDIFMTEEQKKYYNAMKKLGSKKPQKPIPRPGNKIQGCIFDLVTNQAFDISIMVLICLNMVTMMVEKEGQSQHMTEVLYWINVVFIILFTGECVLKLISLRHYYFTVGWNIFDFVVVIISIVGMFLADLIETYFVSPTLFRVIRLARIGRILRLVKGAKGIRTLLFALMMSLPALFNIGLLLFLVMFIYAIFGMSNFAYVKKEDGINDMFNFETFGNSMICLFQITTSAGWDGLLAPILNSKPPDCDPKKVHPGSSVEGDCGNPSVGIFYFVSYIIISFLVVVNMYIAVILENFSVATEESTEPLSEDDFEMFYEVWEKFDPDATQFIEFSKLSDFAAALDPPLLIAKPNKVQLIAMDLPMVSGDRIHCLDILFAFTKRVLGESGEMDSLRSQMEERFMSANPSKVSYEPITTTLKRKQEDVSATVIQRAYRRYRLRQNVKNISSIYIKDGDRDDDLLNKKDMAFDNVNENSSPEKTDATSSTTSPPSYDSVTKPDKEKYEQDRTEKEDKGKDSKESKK

In general, IC50 refers to the midpoint of a concentration-inhibition curve. As to `Cn1nccc1-c1cc(C(F)(F)F)ccc1[C@H]1CCOc2cc(S(=O)(=O)Nc3ncccc3F)ccc21` [Example 18, (S&R)—N-(3-Fluoropyridin-2-yl)-4-(2-(1-methyl-1H-pyrazol-5-yl)-4-(trifluoromethyl)phenyl)chromane-7-sulfonamide], the figures for the IC50 on Nav 1.7 and at Nav 1.5 (setting [1]) were 0.759 µM and greater than 10 µM, respectively.

`Cc1cccc(NS(=O)(=O)c2ccc3c(c2)OCC[C@H]3c2ccc(C(F)(F)F)cc2-c2ccnn2C)n1` [Example 19, (S&R)-4-(2-(1-methyl-1H-pyrazol-5-yl)-4-(trifluoromethyl)phenyl)-N-(6-methylpyridin-2-yl)chroman-7-sulfonamide]: the IC50 on Nav 1.7 is 1.01 µM; at Nav 1.5 (setting [1]), greater than 10 µM.

As for `Cc1ccc(NS(=O)(=O)c2ccc3c(c2)OCC[C@H]3c2ccc(C(F)(F)F)cc2-c2ccnn2C)nc1` [Example 21, (S&R)-4-(2-(1-methyl-1H-pyrazol-5-yl)-4-(trifluoromethyl)phenyl)-N-(5-methylpyridin-2-yl)chroman-7-sulfonamide], on Nav 1.7, the IC50 was found to be 4.27 µM. In addition, the “Nav1.5 % inhibition @ 10 μM” value on Nav 1.5 was determined as 57%.

Consider `Cc1ccc(NS(=O)(=O)c2ccc3c(c2)OCC[C@@H]3c2ccc(C(F)(F)F)cc2-c2ccnn2C)nc1` [Example 22, (S&R)-4-(2-(1-methyl-1H-pyrazol-5-yl)-4-(trifluoromethyl)phenyl)-N-(5-methylpyridin-2-yl)chroman-7-sulfonamide], for which the IC50 at Nav 1.7 was found to be 2.06 µM. Further, the “Nav1.5 % inhibition @ 10 μM” value at Nav 1.5 is recorded as 74%.

With `Cc1ccnc(NS(=O)(=O)c2ccc3c(c2)OCC[C@H]3c2ccc(C(F)(F)F)cc2-c2ccnn2C)c1` [Example 23, (S&R)-4-(2-(1-methyl-1H-pyrazol-5-yl)-4-(trifluoromethyl)phenyl)-N-(4-methylpyridin-2-yl)chroman-7-sulfonamide], the IC50 at Nav 1.7 worked out at 3.69 µM. Besides, the “Nav1.5 % inhibition @ 10 μM” value at Nav 1.5 was 59%.

As for `Cc1ccnc(NS(=O)(=O)c2ccc3c(c2)OCC[C@@H]3c2ccc(C(F)(F)F)cc2-c2ccnn2C)c1` [Example 24, (S&R)-4-(2-(1-methyl-1H-pyrazol-5-yl)-4-(trifluoromethyl)phenyl)-N-(4-methylpyridin-2-yl)chroman-7-sulfonamide], the IC50 at Nav 1.7 turned out to be 0.816 µM; on Nav 1.5 (read-out: Nav1.5 IC50), 3.92 µM.

As to `CC(C)Oc1cccc(NS(=O)(=O)c2ccc3c(c2)OCC[C@H]3c2ccc(C(F)(F)F)cc2-c2ccnn2C)n1` [Example 25, (S&R)—N-(6-isopropoxypyridin-2-yl)-4-(2-(1-methyl-1H-pyrazol-5-yl)-4-(trifluoromethyl)phenyl)chroman-7-sulfonamide], the figures for the IC50 at Nav 1.7 and at Nav 1.5 (setting [1]) were 0.221 µM and greater than 10 µM, respectively.

As for `CC(C)Oc1cccc(NS(=O)(=O)c2ccc3c(c2)OCC[C@@H]3c2ccc(C(F)(F)F)cc2-c2ccnn2C)n1` [Example 26, (S&R)—N-(6-isopropoxypyridin-2-yl)-4-(2-(1-methyl-1H-pyrazol-5-yl)-4-(trifluoromethyl)phenyl)chroman-7-sulfonamide], the IC50 on Nav 1.7 is 0.685 µM; at Nav 1.5 (setting [1]), greater than 10 µM.

Consider `Cn1nccc1-c1cc(C(F)(F)F)ccc1[C@@H]1CCOc2cc(S(=O)(=O)Nc3cccnc3F)ccc21` [Example 27, (S&R)—N-(2-fluoropyridin-3-yl)-4-(2-(1-methyl-1H-pyrazol-5-yl)-4-(trifluoromethyl)phenyl)chroman-7-sulfonamide], for which the “Nav1.7 inhibition @ 10 μM” value on Nav 1.7 was determined as 80%. The IC50 at Nav 1.5 (setting [1]) was greater than 10 µM.

Consider `Cn1nccc1-c1cc(C(F)(F)F)ccc1[C@H]1CCOc2cc(S(=O)(=O)Nc3cccnc3F)ccc21` [Example 28, (S&R)—N-(2-fluoropyridin-3-yl)-4-(2-(1-methyl-1H-pyrazol-5-yl)-4-(trifluoromethyl)phenyl)chroman-7-sulfonamide], for which the figures for the IC50 on Nav 1.7 and at Nav 1.5 (setting [1]) were 1.57 µM and greater than 10 µM, respectively.

With `Cc1ccnc(NS(=O)(=O)c2ccc3c(c2)OCC[C@H]3c2ccc(C(F)(F)F)cc2-c2ccnn2C)n1` [Example 29, (S&R)-4-(2-(1-methyl-1H-pyrazol-5-yl)-4-(trifluoromethyl)phenyl)-N-(4-methylpyrimidin-2-yl)chroman-7-sulfonamide], on Nav 1.7, the “Nav1.7 inhibition @ 10 μM” value was found to be 91%. Besides, the 50% inhibitory concentration (IC50) at Nav 1.5 (setting [1]) was greater than 10 µM.

Values taken from patent US10239869B2, “Sulfonamide compounds as voltage-gated sodium channel modulators” (LUPIN LIMITED, priority 2015, dated 2019).
